Measurements: patent US7507860B2 (Pfizer Inc., priority 2004, dated 2009)

System: male Syrian hamsters, ear sebaceous glands
Assay: Animal model for inhibition of sebum production (hamster ear, HPLC of sebum lipids)
Format: in vivo, Syrian hamster
Conditions: 4 weeks; for % Reduction in CE (cholesterol ester) / % Reduction in WE (wax ester): 3-w/v % topical to ears twice daily, five days a week, difference from vehicle control; for Sum CE + WE: summation of % reduction in CE and WE, 3-w/v % topical
Experimental: Luderschmidt et al describes an animal model for testing whether compounds are capable of modulating sebum secretion. Arch. Derm. Res. 258, 185-191 (1977). This model uses male Syrian hamsters, whose ears contain sebaceous glands. The products of Example 1 and 4 were screened in this model.
Testing for sebum inhibition was carried out in the following manner. Male Syrian hamsters aged 9 to 10 weeks were introduced into the laboratory environment and acclimated for 2 weeks prior to use in the study. Each group consisted of 5 animals and run in parallel with vehicle and positive controls. Prior to administration, 30 mg of each compound was dissolved in 1 mL of a solvent consisting of transcutanol, ethanol, and propylene glycol (20/60/20% v/v) to achieve a final concentration of 3-w/v %.
Animals were dosed topically twice daily, five days a week, for 4 weeks. Each dose consisted of 25 micro liters of vehicle control or drug. The dose was applied to the ventral surfaces of both the right and left ears. All animals were sacrificed approximately 18-24 hours after the final dose. The right ears were collected from each animal and used for sebum analysis.
The ears were prepped for HPLC analysis in the following manner. One 8 mm distal biopsy punch was taken, just above the anatomical “V” mark in the ear to normalize the sample area. The punch was pulled apart. The ventral biopsy surface (the area where the topical dose was directly applied to the sebaceous glands) was retained for testing and the dorsal surface of the biopsy punch was discarded.
Tissue samples were blown with N2 gas and stored at −80° C. under nitrogen until HPLC analysis. In addition to ear samples, an aliquot of each drug and vehicle (at least 250 ul) was also stored at −80° C. for inclusion in the HPLC analysis.
HPLC analysis was carried out on an extract of the tissue sample. Tissue samples were contacted with 3 ml of solvent (a 4:1 admixture of 2,2,4-trimethylpentane and isopropyl alcohol). The mixture was shaken for 15 minutes and stored overnight at room temperature, protected from light. The next morning 1 milliliter of water was added to the sample and shaken for 15 minutes. The sample was then centrifuged at approximately 1500 rpm for 15 minutes. Two ml of the organic phase (top layer) was transferred to a glass vial, dried at 37° C., under nitrogen, for approximately 1 hour, and then lyophilized for approximately 48 hours. The samples were then removed from the lyophilizer and each vial was reconstituted with 600 μl of solvent A (trimethylpentane/tetrahydrofuran (99:1). The samples were then recapped and vortexed for 5 minutes.
200 μl of each sample was then transferred to a pre-labeled 200 μl HPLC vial with 200 μL glass inserts. The HPLC vials were placed in the autosampler tray for the Agilent 1100 series HPLC unit. The Agilent 1100 HPLC system consisted of a thermostated autosampler, a quarternary pump, a column heater, and an A/D interface module. All components were controlled by Agilent ChemStation software. A Waters Spherisorb S3W 4.6×100 mm analytical column was maintained at 30° C. by the Agilent column heater unit. The HPLC autosampler was programmed to maintain the sample temperature at 20 C throughout the run.
10 uL of each sample was injected in triplicate into the column. Two solvents were used for the solvent gradient. Solvent A was an admixture of trimethylpentane and tetrahydrofuran (99:1). Solvent B was ethylacetate. The gradient utilized is described in the table below: […]
The Sedex 75 Evaporative Light Scattering Detector (ELSD) was operated at 45° C. with a gain of 5, and N2 pressure maintained at 3.1 bar. Analog signal obtained by the instrument was sent to the Agilent A/D interface module where it was converted to a digital output. The conversion was based on a 10000-mAU/volt set point and the data rate was set at 10 Hz (0.03 min). The resulting digital output was then feed into the Agilent ChemStation software for integration of the peak area. […]

| Structure (SMILES) | % Reduction in CE (cholesterol ester) | % Reduction in WE (wax ester) | Sum CE + WE |
| --- | --- | --- | --- |
| CC(C)CC(Oc1ccc(C#N)c(C(F)(F)F)c1)C(=O)NCc1ccccc1 (stereo not drawn) [Example 1, 2-(4-Cyano-3-trifluoromethyl-phenoxy)-4-methyl-pentanoic acid benzylamide] | 32% | 52% | 84% |
| CCCC(Oc1ccc(C#N)c(C(F)(F)F)c1)C(=O)NCc1ccccc1 (stereo not drawn) [Example 4, 2-(4-Cyano-3-trifluoromethyl-phenoxy)-pentanoic acid benzylamide] | 15% | 31% | 46% |
